# Reference: ChEMBL document CHEMBL3352288, “Synthesis and biological evaluation of 9α- and 9β-hydroxyamino-parthenolides as novel anticancer agents” (Bioorg Med Chem Lett, 2014)
# Assays:
# Assay type in all cases: functional, cell-based
# T98G = assay: Anticancer activity against human T98G cells assessed as growth inhibition after 72 hrs by MTT assay
# SK-MEL-28 = assay: Anticancer activity against human SK-MEL-28 cells assessed as growth inhibition after 72 hrs by MTT assay; conditions: SK-MEL-28, 72 h
# A549 = assay: Anticancer activity against human A549 cells assessed as growth inhibition after 72 hrs by MTT colorimetric assay; conditions: A549, 72 h
# [1] = Anticancer activity against mouse B16F10 cells assessed as growth inhibition after 72 hrs by MTT colorimetric assay; conditions: B16-F10, 72 h
# Hs 683 = assay: Anticancer activity against human Hs 683 cells assessed as growth inhibition after 72 hrs by MTT colorimetric assay; conditions: Hs 683, 72 h
# MCF7 = assay: Anticancer activity against human MCF7 cells assessed as growth inhibition after 72 hrs by MTT assay; conditions: MCF7, 72 h
# [2] = Anticancer activity against human Glioma cells assessed as growth inhibition after 72 hrs by MTT assay
smiles,measurement,setting,value
C/C1=C\CC[C@@]2(C)O[C@@H]2[C@H]2OC(=O)[C@@H](CN3CCN(C)CC3)[C@@H]2C[C@@H]1O,IC50,T98G,23 µM
same,IC50,SK-MEL-28,23 µM
same,IC50,A549,25 µM
same,IC50,[1],9 µM
same,IC50,Hs 683,22 µM
same,IC50,MCF7,22 µM
C/C1=C\CC[C@@]2(C)O[C@@H]2[C@H]2OC(=O)[C@@H](CN3CCN(C)CC3)[C@@H]2C[C@H]1O,IC50,SK-MEL-28,57 µM
same,IC50,A549,30 µM
same,IC50,[1],25 µM
same,IC50,[2],36 µM
same,IC50,Hs 683,33 µM
same,IC50,MCF7,33 µM
C[C@]12O[C@@H]1CC[C@@]1(C)O[C@@H]1[C@H]1OC(=O)[C@@H](CN3CCN(c4ccc(Cl)cc4)CC3)[C@@H]1C[C@H]2O,IC50,T98G,16 µM
same,IC50,SK-MEL-28,31 µM
same,IC50,A549,28 µM
same,IC50,[1],19 µM
same,IC50,MCF7,29 µM
C[C@]12O[C@@H]1CC[C@@]1(C)O[C@@H]1[C@H]1OC(=O)[C@@H](CN3CCN(c4ccccc4)CC3)[C@@H]1C[C@H]2O,IC50,SK-MEL-28,51 µM
same,IC50,A549,48 µM
same,IC50,[1],22 µM
same,IC50,[2],35 µM
same,IC50,Hs 683,31 µM
same,IC50,MCF7,59 µM
C/C1=C\CC[C@@]2(C)O[C@@H]2[C@H]2OC(=O)[C@@H](CN3CCN(c4ccccc4F)CC3)[C@@H]2C[C@H]1O,IC50,SK-MEL-28,25 µM
same,IC50,A549,22 µM
same,IC50,[1],6 µM
same,IC50,[2],6 µM
same,IC50,Hs 683,25 µM
same,IC50,MCF7,24 µM
C/C1=C\CC[C@@]2(C)O[C@@H]2[C@H]2OC(=O)[C@@H](CN3CCCCC3)[C@@H]2C[C@H]1O,IC50,SK-MEL-28,16 µM
same,IC50,A549,18 µM
same,IC50,[1],4 µM
same,IC50,[2],4 µM
same,IC50,Hs 683,7 µM
same,IC50,MCF7,16 µM
COc1ccc(N2CCN(C[C@@H]3C(=O)O[C@H]4[C@H]3C[C@@H](O)/C(C)=C/CC[C@@]3(C)O[C@H]43)CC2)cc1,IC50,SK-MEL-28,25 µM
same,IC50,A549,26 µM
same,IC50,[1],14 µM
same,IC50,[2],18 µM
same,IC50,Hs 683,22 µM
same,IC50,MCF7,24 µM
C[C@]12O[C@@H]1CC[C@@]1(C)O[C@@H]1[C@H]1OC(=O)[C@@H](CN3CCCCC3)[C@@H]1C[C@H]2O,IC50,SK-MEL-28,84 µM
same,IC50,A549,90 µM
same,IC50,[1],46 µM
same,IC50,[2],59 µM
same,IC50,Hs 683,67 µM
same,IC50,MCF7,74 µM
C=C1C(=O)O[C@H]2[C@H]1C[C@H](O)/C(C)=C/CC[C@@]1(C)O[C@@H]21,IC50,T98G,25 µM
same,IC50,SK-MEL-28,25 µM
same,IC50,A549,24 µM
same,IC50,[1],15 µM
same,IC50,Hs 683,25 µM
same,IC50,MCF7,23 µM
C=C1C(=O)O[C@H]2[C@H]1C[C@@H](O)/C(C)=C/CC[C@@]1(C)O[C@@H]21,IC50,T98G,11 µM
same,IC50,SK-MEL-28,9 µM
same,IC50,A549,7 µM
same,IC50,[1],4 µM
same,IC50,Hs 683,7 µM
same,IC50,MCF7,6 µM
C[C@]12O[C@@H]1CC[C@@]1(C)O[C@@H]1[C@H]1OC(=O)[C@@H](CN3CCOCC3)[C@@H]1C[C@H]2O,IC50,SK-MEL-28,22 µM
same,IC50,A549,23 µM
same,IC50,[1],9 µM
same,IC50,[2],12 µM
same,IC50,Hs 683,24 µM
same,IC50,MCF7,24 µM
C/C1=C\CC[C@@]2(C)O[C@@H]2[C@H]2OC(=O)[C@@H](CN3CCCC3)[C@@H]2C[C@@H]1O,IC50,T98G,15 µM
same,IC50,SK-MEL-28,23 µM
same,IC50,A549,9 µM
same,IC50,[1],7 µM
same,IC50,Hs 683,10 µM
same,IC50,MCF7,18 µM
C/C1=C\CC[C@@]2(C)O[C@@H]2[C@H]2OC(=O)[C@@H](CN3CCCC3)[C@@H]2C[C@H]1O,IC50,SK-MEL-28,19 µM
same,IC50,A549,10 µM
same,IC50,[1],4 µM
same,IC50,[2],5 µM
same,IC50,Hs 683,15 µM
same,IC50,MCF7,21 µM
C/C1=C\CC[C@@]2(C)O[C@@H]2[C@H]2OC(=O)[C@@H](CN3CCOCC3)[C@@H]2C[C@H]1O,IC50,SK-MEL-28,22 µM
same,IC50,A549,25 µM
same,IC50,[1],5 µM
same,IC50,[2],5 µM
same,IC50,Hs 683,22 µM
same,IC50,MCF7,24 µM
C[C@]12O[C@@H]1CC[C@@]1(C)O[C@@H]1[C@H]1OC(=O)[C@@H](CN3CCN(c4ccccc4F)CC3)[C@@H]1C[C@H]2O,IC50,SK-MEL-28,17 µM
same,IC50,A549,22 µM
same,IC50,[1],5 µM
same,IC50,[2],8 µM
same,IC50,Hs 683,18 µM
same,IC50,MCF7,20 µM
C/C1=C\CC[C@@]2(C)O[C@@H]2[C@H]2OC(=O)[C@@H](CN3CCCCC3)[C@@H]2C[C@@H]1O,IC50,T98G,17 µM
same,IC50,SK-MEL-28,10 µM
same,IC50,A549,6 µM
same,IC50,[1],6 µM
same,IC50,Hs 683,7 µM
same,IC50,MCF7,8 µM
C/C1=C\CC[C@@]2(C)O[C@@H]2[C@H]2OC(=O)[C@@H](CN3CCN(c4ccccc4)CC3)[C@@H]2C[C@H]1O,IC50,SK-MEL-28,19 µM
same,IC50,A549,17 µM
same,IC50,[1],6 µM
same,IC50,[2],5 µM
same,IC50,Hs 683,22 µM
same,IC50,MCF7,19 µM
C/C1=C\CC[C@@]2(C)O[C@@H]2[C@H]2OC(=O)[C@@H](CN(C)CCN(C)C)[C@@H]2C[C@H]1O,IC50,SK-MEL-28,19 µM
same,IC50,A549,8 µM
same,IC50,[1],4 µM
same,IC50,[2],16 µM
same,IC50,Hs 683,9 µM
same,IC50,MCF7,14 µM
